In PubChem BioAssay (NCI):
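Dose response: 5 concentrations. Exposure: 48 h. Format: 96-well plates. Endpoint: linear interpolation; highest concentration if not reached. TGI: total growth inhibition.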

Tests used:
Experiment in all cases: NCI-60 cell line screen, 48 h
[1] = tested on: 786-0 renal
[2] = tested on: A498 renal
[3] = tested on: A549 NSCLC
[4] = tested on: ACHN renal
[5] = tested on: BT-549 breast
[6] = tested on: CAKI-1 renal
[7] = tested on: CCRF-CEM leukemia
[8] = tested on: COLO 205 colon
[9] = tested on: DU-145 prostate
[10] = tested on: EKVX NSCLC
[11] = tested on: HCC-2998 colon
[12] = tested on: HCT-116 colon
[13] = tested on: HCT-15 colon
[14] = tested on: HL-60(TB) leukemia
[15] = tested on: HOP-62 NSCLC
[16] = tested on: HOP-92 NSCLC
[17] = tested on: HS 578T breast
[18] = tested on: HT29 colon
[19] = tested on: IGROV1 ovarian
[20] = tested on: K-562 leukemia
[21] = tested on: KM12 colon
[22] = tested on: M14 melanoma
[23] = tested on: MALME-3M melanoma
[24] = tested on: MCF7 breast
[25] = tested on: MDA-MB-231 breast
[26] = tested on: MDA-MB-435
[27] = tested on: MDA-N
[28] = tested on: MOLT-4 leukemia
[29] = tested on: NCI-H226 lung
[30] = tested on: NCI-H23 lung
[31] = tested on: NCI-H460 lung
[32] = tested on: NCI-H522 lung
[33] = tested on: NCI/ADR-RES ovarian
[34] = tested on: OVCAR-3 ovarian
[35] = tested on: OVCAR-4 ovarian
[36] = tested on: OVCAR-5 ovarian
[37] = tested on: OVCAR-8 ovarian
[38] = tested on: PC-3 prostate
[39] = tested on: RPMI-8226 leukemia
[40] = tested on: RXF 393 renal
[41] = tested on: SF-268 CNS
[42] = tested on: SF-295 CNS
[43] = tested on: SF-539 CNS
[44] = tested on: SK-MEL-2 melanoma
[45] = tested on: SK-MEL-28 melanoma
[46] = tested on: SK-MEL-5 melanoma
[47] = tested on: SK-OV-3 ovarian
[48] = tested on: SN12C renal
[49] = tested on: SNB-19 CNS
[50] = tested on: SR leukemia
[51] = tested on: T-47D breast
[52] = tested on: TK-10 renal
[53] = tested on: U251 CNS
[54] = tested on: UACC-257 melanoma
[55] = tested on: UACC-62 melanoma
[56] = tested on: UO-31 renal
[57] = tested on: SNB-75 CNS
[58] = tested on: LOX IMVI melanoma
[59] = tested on: SW-620 colon

SMILES: O=c1[nH]cc(N=Cc2cc(Cl)cc(Cl)c2O)c(=O)[nH]1
- TGI [1]: 62.2 µM
- TGI [2]: > 100 µM
- TGI [3]: > 100 µM
- TGI [4]: 76.1 µM
- TGI [5]: 94.9 µM
- TGI [6]: 57.7 µM
- TGI [7]: 99 µM
- TGI [8]: 57.7 µM
- TGI [9]: 60.4 µM
- TGI [10]: > 100 µM
- TGI [11]: 95.7 µM
- TGI [12]: 43.3 µM
- TGI [13]: > 100 µM
- TGI [14]: 46.9 µM
- TGI [15]: 57 µM
- TGI [16]: 89 µM
- TGI [17]: 67.1 µM
- TGI [18]: 60.8 µM
- TGI [19]: 50.1 µM
- TGI [20]: > 100 µM
- TGI [21]: 85 µM
- TGI [22]: 47.8 µM
- TGI [23]: 49.9 µM
- TGI [24]: > 100 µM
- TGI [25]: > 100 µM
- TGI [26]: 61.8 µM
- TGI [27]: 93.1 µM
- TGI [28]: 69.7 µM
- TGI [29]: 62.1 µM
- TGI [30]: 75.3 µM
- TGI [31]: > 100 µM
- TGI [32]: 65.3 µM
- TGI [33]: 47.8 µM
- TGI [34]: 47.1 µM
- TGI [35]: 57.2 µM
- TGI [36]: > 100 µM
- TGI [37]: > 100 µM
- TGI [38]: 98.3 µM
- TGI [39]: 70.6 µM
- TGI [40]: > 100 µM
- TGI [41]: 47.4 µM
- TGI [42]: 96.1 µM
- TGI [43]: 43.6 µM
- TGI [44]: 41.6 µM
- TGI [45]: 54.5 µM
- TGI [46]: 42.6 µM
- TGI [47]: 53.9 µM
- TGI [48]: > 100 µM
- TGI [49]: > 100 µM
- TGI [50]: 57.1 µM
- TGI [51]: 66.2 µM
- TGI [52]: > 100 µM
- TGI [53]: > 100 µM
- TGI [54]: 83.8 µM
- TGI [55]: 61.5 µM
- TGI [56]: > 100 µM

SMILES: c1ccc(N=C2SC3=Nc4cccc5cccc(c45)N3C2=Nc2ccccc2)cc1
- TGI [2]: > 100 µM
- TGI [5]: > 100 µM
- TGI [6]: > 100 µM
- TGI [7]: > 100 µM
- TGI [8]: > 100 µM
- TGI [9]: > 100 µM
- TGI [11]: > 100 µM
- TGI [13]: > 100 µM
- TGI [14]: > 100 µM
- TGI [15]: > 100 µM
- TGI [16]: > 100 µM
- TGI [17]: > 100 µM
- TGI [18]: > 100 µM
- TGI [19]: > 100 µM
- TGI [20]: > 100 µM
- TGI [21]: > 100 µM
- TGI [22]: > 100 µM
- TGI [23]: > 100 µM
- TGI [24]: > 100 µM
- TGI [25]: > 100 µM
- TGI [26]: > 100 µM
- TGI [27]: > 100 µM
- TGI [28]: > 100 µM
- TGI [29]: > 100 µM
- TGI [30]: > 100 µM
- TGI [31]: > 100 µM
- TGI [32]: > 100 µM
- TGI [33]: > 100 µM
- TGI [34]: > 100 µM
- TGI [36]: > 100 µM
- TGI [37]: > 100 µM
- TGI [38]: > 100 µM
- TGI [39]: > 100 µM
- TGI [40]: > 100 µM
- TGI [42]: > 100 µM
- TGI [44]: > 100 µM
- TGI [45]: > 100 µM
- TGI [46]: > 100 µM
- TGI [47]: > 100 µM
- TGI [48]: > 100 µM
- TGI [49]: > 100 µM
- TGI [57]: > 100 µM
- TGI [50]: > 100 µM
- TGI [51]: > 100 µM
- TGI [53]: > 100 µM
- TGI [55]: > 100 µM
- TGI [56]: > 100 µM

SMILES: Oc1ccc(-c2nc(-c3cccnc3)c(-c3ccc(F)cc3)[nH]2)cc1
- TGI [1]: 59 µM
- TGI [3]: 65 µM
- TGI [4]: 58.5 µM
- TGI [5]: 32.6 µM
- TGI [6]: 78.6 µM
- TGI [7]: 42.1 µM
- TGI [8]: 36.8 µM
- TGI [9]: 63.1 µM
- TGI [10]: 41.7 µM
- TGI [11]: 40.3 µM
- TGI [12]: 32.9 µM
- TGI [13]: 64.5 µM
- TGI [14]: 52 µM
- TGI [15]: 36.7 µM
- TGI [17]: 46.4 µM
- TGI [18]: 32.5 µM
- TGI [19]: 33.8 µM
- TGI [20]: 54.6 µM
- TGI [21]: 33.2 µM
- TGI [58]: 28.5 µM
- TGI [22]: 32.9 µM
- TGI [23]: 32.6 µM
- TGI [24]: 32.7 µM
- TGI [25]: 41.7 µM
- TGI [26]: 31.1 µM
- TGI [27]: 37.5 µM
- TGI [28]: 33.2 µM
- TGI [29]: 46.8 µM
- TGI [30]: 25.5 µM
- TGI [31]: 63.9 µM
- TGI [33]: 42.6 µM
- TGI [34]: 31.1 µM
- TGI [35]: 52.7 µM
- TGI [36]: 68 µM
- TGI [37]: 34.3 µM
- TGI [38]: 35.2 µM
- TGI [39]: 39.8 µM
- TGI [40]: 33.9 µM
- TGI [41]: 49.8 µM
- TGI [42]: 32 µM
- TGI [44]: 34.6 µM
- TGI [45]: 35.9 µM
- TGI [46]: 33.8 µM
- TGI [47]: 57.1 µM
- TGI [48]: 54.6 µM
- TGI [49]: 60.8 µM
- TGI [57]: 35 µM
- TGI [50]: 85 µM
- TGI [59]: 35.5 µM
- TGI [51]: 43.8 µM
- TGI [52]: 36.2 µM
- TGI [53]: 32.9 µM
- TGI [54]: 31.5 µM
- TGI [55]: 29.6 µM

SMILES: CCOC(=O)c1c2ccccc2n2c(N)c(C(N)=O)nnc12
- TGI [1]: > 100 µM
- TGI [2]: 71 µM
- TGI [3]: > 100 µM
- TGI [4]: 26.6 µM
- TGI [5]: 89.9 µM
- TGI [6]: > 100 µM
- TGI [7]: > 100 µM
- TGI [8]: > 100 µM
- TGI [9]: > 100 µM
- TGI [10]: > 100 µM
- TGI [11]: > 100 µM
- TGI [12]: > 100 µM
- TGI [13]: > 100 µM
- TGI [14]: > 100 µM
- TGI [15]: 69.1 µM
- TGI [17]: 35.5 µM
- TGI [18]: > 100 µM
- TGI [19]: 42.6 µM
- TGI [20]: > 100 µM
- TGI [21]: > 100 µM
- TGI [58]: > 100 µM
- TGI [22]: > 100 µM
- TGI [23]: > 100 µM
- TGI [24]: > 100 µM
- TGI [25]: 88.6 µM
- TGI [26]: > 100 µM
- TGI [27]: > 100 µM
- TGI [28]: > 100 µM
- TGI [30]: 66.2 µM
- TGI [31]: > 100 µM
- TGI [32]: > 100 µM
- TGI [33]: > 100 µM
- TGI [34]: > 100 µM
- TGI [35]: > 100 µM
- TGI [36]: > 100 µM
- TGI [37]: 55 µM
- TGI [38]: > 100 µM
- TGI [39]: > 100 µM
- TGI [40]: 41.6 µM
- TGI [41]: 56.3 µM
- TGI [42]: > 100 µM
- TGI [43]: 49.8 µM
- TGI [44]: > 100 µM
- TGI [45]: > 100 µM
- TGI [46]: > 100 µM
- TGI [47]: 37.6 µM
- TGI [48]: > 100 µM
- TGI [49]: 91.8 µM
- TGI [57]: 30.8 µM
- TGI [50]: > 100 µM
- TGI [59]: > 100 µM
- TGI [51]: > 100 µM
- TGI [52]: 40.5 µM
- TGI [53]: 55.2 µM
- TGI [54]: > 100 µM
- TGI [55]: 81.1 µM
- TGI [56]: > 100 µM
